Data: article PMC9127186, “Molecular Basis Underlying Hepatobiliary and Renal Excretion of Phenolic Acids of Salvia miltiorrhiza Roots (Danshen)” (Frontiers in Pharmacology, 2022)

Tests used:
[1] = target: T1, human OAT2 (Homo sapiens, UniProt Q9Y694); test: Cellular transport assay, HEK-293 cells expressing human OAT2; conditions: for TransportTC/TransportMC ratio (net transport ratio): 10 min; for K m: human hepatic sinusoidal uptake OAT2 (also renal basolateral), 5 min incubation, concentrations in Table 1
T1 sequence (Q9Y694 1-546 isoform Q9Y694-2): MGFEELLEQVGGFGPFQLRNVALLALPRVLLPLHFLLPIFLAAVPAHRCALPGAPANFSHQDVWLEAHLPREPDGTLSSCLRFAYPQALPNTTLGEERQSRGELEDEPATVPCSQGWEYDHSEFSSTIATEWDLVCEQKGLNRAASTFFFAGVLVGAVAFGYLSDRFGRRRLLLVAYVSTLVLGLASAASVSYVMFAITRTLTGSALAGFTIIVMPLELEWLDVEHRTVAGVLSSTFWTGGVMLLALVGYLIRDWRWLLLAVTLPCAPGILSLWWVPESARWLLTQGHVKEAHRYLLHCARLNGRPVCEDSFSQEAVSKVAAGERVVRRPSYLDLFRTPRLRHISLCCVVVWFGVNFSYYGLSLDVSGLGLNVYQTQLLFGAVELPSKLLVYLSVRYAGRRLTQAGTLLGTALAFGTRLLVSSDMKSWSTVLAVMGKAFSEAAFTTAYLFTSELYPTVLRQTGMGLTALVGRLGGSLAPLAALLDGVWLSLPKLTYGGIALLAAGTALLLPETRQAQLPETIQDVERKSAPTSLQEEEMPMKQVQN
In short: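 Read-out is LC/MS quantitation of Danshen compound taken up over 5 min, a window within linear uptake, by HEK-293 cells transiently expressing the transporter or carrying empty vector. Cells were used 48 h after transfection. Initial rates versus substrate concentration were fitted nonlinearly for Km and Vmax.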

[2] = target: T2, human OAT4 (Homo sapiens, UniProt Q9NSA0); test: Cellular transport assay, HEK-293 cells expressing human OAT4; conditions: for TransportTC/TransportMC ratio (net transport ratio): 10 min; for K m: human renal apical uptake OAT4, 5 min incubation, concentrations in Table 1
T2 sequence (Q9NSA0 1-550): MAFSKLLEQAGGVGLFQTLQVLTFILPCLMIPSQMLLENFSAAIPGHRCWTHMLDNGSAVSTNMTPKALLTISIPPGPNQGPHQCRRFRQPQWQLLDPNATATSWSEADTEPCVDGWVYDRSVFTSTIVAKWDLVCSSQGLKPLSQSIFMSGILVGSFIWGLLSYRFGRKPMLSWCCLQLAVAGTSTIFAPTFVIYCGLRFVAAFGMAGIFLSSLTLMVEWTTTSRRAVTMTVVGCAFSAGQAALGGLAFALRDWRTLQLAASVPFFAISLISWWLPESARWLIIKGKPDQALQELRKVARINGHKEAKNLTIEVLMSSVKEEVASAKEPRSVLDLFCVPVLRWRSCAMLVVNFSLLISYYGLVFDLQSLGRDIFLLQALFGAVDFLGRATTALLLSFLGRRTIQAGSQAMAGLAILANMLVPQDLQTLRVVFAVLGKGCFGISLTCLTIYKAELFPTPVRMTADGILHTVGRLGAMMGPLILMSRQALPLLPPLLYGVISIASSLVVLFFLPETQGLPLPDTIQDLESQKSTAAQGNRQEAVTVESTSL

[3] = target: T3, rat Oat2 (Rattus norvegicus, UniProt Q5RLM2); test: Cellular transport assay, HEK-293 cells expressing rat Oat2; conditions: for TransportTC/TransportMC ratio (net transport ratio): 10 min; for K m: rat hepatic sinusoidal uptake Oat2 (also renal apical), 5 min incubation, concentrations in Table 1
T3 sequence (Q5RLM2 1-535): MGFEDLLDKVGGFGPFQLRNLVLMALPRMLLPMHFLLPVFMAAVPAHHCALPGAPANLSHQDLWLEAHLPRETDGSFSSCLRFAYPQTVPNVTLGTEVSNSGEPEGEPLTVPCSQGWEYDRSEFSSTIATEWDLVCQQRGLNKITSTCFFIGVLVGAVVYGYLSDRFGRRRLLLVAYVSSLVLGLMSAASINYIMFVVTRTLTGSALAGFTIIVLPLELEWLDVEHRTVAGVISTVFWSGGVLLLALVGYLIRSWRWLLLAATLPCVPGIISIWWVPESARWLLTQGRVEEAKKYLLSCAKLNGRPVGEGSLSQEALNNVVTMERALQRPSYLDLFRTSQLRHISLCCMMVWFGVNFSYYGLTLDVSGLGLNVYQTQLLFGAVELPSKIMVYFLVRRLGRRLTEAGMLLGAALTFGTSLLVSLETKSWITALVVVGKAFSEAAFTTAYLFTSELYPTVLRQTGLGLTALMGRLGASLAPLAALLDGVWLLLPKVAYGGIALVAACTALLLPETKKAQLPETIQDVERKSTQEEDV

[4] = target: T4, rat Oct3 (Rattus norvegicus, UniProt O88446); test: Cellular transport assay, HEK-293 cells expressing rat Oct3; conditions: Danshen phenolic acid at 100 μM final concentration, 10 min; rat Oct3-transfected vs mock cells
T4 sequence (O88446 1-551): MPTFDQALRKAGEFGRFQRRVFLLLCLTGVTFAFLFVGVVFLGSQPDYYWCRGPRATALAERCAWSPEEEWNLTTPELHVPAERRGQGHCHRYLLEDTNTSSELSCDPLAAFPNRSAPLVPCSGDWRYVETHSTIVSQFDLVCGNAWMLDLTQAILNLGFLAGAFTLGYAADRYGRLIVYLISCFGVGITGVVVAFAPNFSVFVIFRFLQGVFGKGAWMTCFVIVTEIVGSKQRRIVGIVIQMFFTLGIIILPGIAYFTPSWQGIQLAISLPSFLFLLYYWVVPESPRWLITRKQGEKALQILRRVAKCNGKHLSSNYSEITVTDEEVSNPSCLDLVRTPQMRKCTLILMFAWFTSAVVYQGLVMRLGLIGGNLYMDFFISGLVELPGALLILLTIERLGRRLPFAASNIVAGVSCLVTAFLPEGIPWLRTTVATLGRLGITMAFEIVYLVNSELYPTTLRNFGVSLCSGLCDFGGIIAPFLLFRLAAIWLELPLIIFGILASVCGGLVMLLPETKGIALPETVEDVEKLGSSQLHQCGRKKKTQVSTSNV

[5] = Danshen phenolic acid at 100 μM final concentration, human OAT2-transfected vs mock cells
[6] = Danshen phenolic acid at 100 μM final concentration, human OAT4-transfected vs mock cells
[7] = Danshen phenolic acid at 100 μM final concentration, rat Oat2-transfected vs mock cells

| Molecule | TransportTC/TransportMC ratio (net transport ratio) [1, 5] | TransportTC/TransportMC ratio (net transport ratio) [2, 6] | TransportTC/TransportMC ratio (net transport ratio) [3, 7] | TransportTC/TransportMC ratio (net transport ratio) [4] | substrate of human OAT2 [1] | microsomal CLint ([1]; human) | K m [1] | substrate of rat Oat2 [3] | microsomal CLint ([3]; rat) | K m [3] | TransportTC/TransportMC ratio (net transport ratio) ([1]; human, 100 μM) | microsomal CLint ([1]; human, other cell line) | substrate of human OAT4 [2] | K m [2] | TransportTC/TransportMC ratio (net transport ratio) ([2]; human, 100 μM) | microsomal CLint ([2]; human, other cell line) | TransportTC/TransportMC ratio (net transport ratio) ([3]; rat, 100 μM) | microsomal CLint ([3]; rat, other cell line) |
| --- | --- | --- | --- | --- | --- | --- | --- | --- | --- | --- | --- | --- | --- | --- | --- | --- | --- | --- |
| O=C(/C=C/c1ccc(O)c2c1[C@H](C(=O)O)[C@@H](c1ccc(O)c(O)c1)O2)O[C@H](Cc1ccc(O)c(O)c1)C(=O)O [Lithospermic acid, lithospermic acid] | 1.51 ± 0.27 | 2.91 ± 0.17 | 1.36 ± 0.33 | 0.81 ± 0.13 | – | – | – | – | – | – | – | – | – | – | – | – | – | – |
| O=C(O)c1ccc(O)c(O)c1 [Protocatechuic acid, protocatechuic acid] | 417 ± 23 | 1.56 ± 0.46 | 163 ± 30 | 0.85 ± 0.11 | substrates | 20.7 µL/min/mg | 185 ± 24 µM | substrates | 10.9 µL/min/mg | 109 ± 6 µM | – | – | – | – | – | – | – | – |
| O=C(/C=C/c1ccc(O)c(O)c1)O[C@H](Cc1ccc(O)c(O)c1)C(=O)O [Rosmarinic acid, rosmarinic acid] | – | – | – | 0.74 ± 0.24 | substrates | – | 48.6 ± 4.2 µM | substrates | – | 119 ± 15 µM | 716 ± 86 | 19.1 µL/min/mg | relatively weak substrates | 325 ± 53 µM | 7.27 ± 0.77 | 0.15 µL/min/mg | 334 ± 18 | 5.2 µL/min/mg |
| O=C(/C=C/c1ccc(O)c(O)c1/C=C/c1ccc(O)c(O)c1)O[C@H](Cc1ccc(O)c(O)c1)C(=O)O [Salvianolic acid A, salvianolic acid A] | – | – | – | – | not a substrate | – | – | not substrates | – | – | 2.25 ± 0.47 | – | – | – | 1.56 ± 0.23 | – | 1.41 ± 0.26 | – |
| O=C(O)Cc1c(/C=C/C(=O)O[C@H](Cc2ccc(O)c(O)c2)C(=O)O)ccc(O)c1O [Salvianolic acid D, salvianolic acid D] | 314 ± 44 | 2.87 ± 0.09 | 50.5 ± 10.7 | 0.93 ± 0.15 | substrates | 24.3 µL/min/mg | 111 ± 13 µM | substrates | 2.73 µL/min/mg | 60.0 ± 7.2 µM | – | – | – | – | – | – | – | – |
| O=C(O)C(O)Cc1ccc(O)c(O)c1 (stereo not shown) [Tanshinol, tanshinol] | – | – | – | – | – | – | 1,228 ± 160 μM | – | – | 978 ± 123 µM | – | – | – | 3,442 ± 940 μM | – | – | – | – |
| salvianolic acid B | 1.04 ± 0.09 | 0.95 ± 0.23 | 0.92 ± 0.22 | 0.84 ± 0.31 | – | – | – | – | – | – | – | – | – | – | – | – | – | – |
